This note sets out measurements from patent EP2727916A1, “Neuroprotective multi-target directed drugs” (Universitat Autònoma de Barcelona, priority 2012, dated 2014).

“Also recorded” adds a separate entry of the source.

The target of one assay is T1, MAO-A (Rattus norvegicus, UniProt P21396).
T1 construct: from tissue; host or cells: rat brain homogenate per the methods
T1 sequence (P21396 1-526): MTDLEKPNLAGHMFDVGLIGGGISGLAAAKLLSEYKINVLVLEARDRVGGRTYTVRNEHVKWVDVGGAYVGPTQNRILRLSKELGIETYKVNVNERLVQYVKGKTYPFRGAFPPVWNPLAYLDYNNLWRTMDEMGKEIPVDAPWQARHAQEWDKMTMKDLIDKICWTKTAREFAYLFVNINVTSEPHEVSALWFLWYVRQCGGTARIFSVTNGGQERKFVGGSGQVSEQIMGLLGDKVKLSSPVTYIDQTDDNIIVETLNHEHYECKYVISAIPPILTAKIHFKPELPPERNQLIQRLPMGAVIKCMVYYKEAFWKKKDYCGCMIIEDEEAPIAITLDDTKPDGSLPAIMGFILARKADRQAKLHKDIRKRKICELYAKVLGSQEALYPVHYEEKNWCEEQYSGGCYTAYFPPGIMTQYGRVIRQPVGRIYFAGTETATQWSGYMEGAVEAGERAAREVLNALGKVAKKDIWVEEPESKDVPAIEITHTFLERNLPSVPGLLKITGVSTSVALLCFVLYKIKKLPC
The assay can be described thus: Time-dependence of MAO-A inhibition (pre-incubation times). The class given is biochemical. On the procedure: Lineweaver-Burk reciprocal plots of initial velocity and substrate concentrations (0.1-1 mM) are presented. […] Lineweaver-Burk reciprocal plots of initial velocity and substrate concentrations (0.1-1 mM) are presented. […] Lineweaver-Burk reciprocal plots of initial velocity and substrate concentrations (0.1-1 mM) are presented. […] Three consecutive centrifuges were performed with buffer. […] 5 µM). All solution were made using Tris buffer pH7.4. […] 5 µM). All solution were made using Tris buffer pH7.4. […] 5 µM). All solution were made using Tris buffer pH7.4. Spectra were obtained after a Short-time incubation
Independent inhibition assays were also performed at different pre-incubation periods for both two MAO isoforms (Figure 6). […]

A further assay concerns the target T2, ratMAO-B (Rattus norvegicus, UniProt P19643).
T2 sequence (P19643 1-520): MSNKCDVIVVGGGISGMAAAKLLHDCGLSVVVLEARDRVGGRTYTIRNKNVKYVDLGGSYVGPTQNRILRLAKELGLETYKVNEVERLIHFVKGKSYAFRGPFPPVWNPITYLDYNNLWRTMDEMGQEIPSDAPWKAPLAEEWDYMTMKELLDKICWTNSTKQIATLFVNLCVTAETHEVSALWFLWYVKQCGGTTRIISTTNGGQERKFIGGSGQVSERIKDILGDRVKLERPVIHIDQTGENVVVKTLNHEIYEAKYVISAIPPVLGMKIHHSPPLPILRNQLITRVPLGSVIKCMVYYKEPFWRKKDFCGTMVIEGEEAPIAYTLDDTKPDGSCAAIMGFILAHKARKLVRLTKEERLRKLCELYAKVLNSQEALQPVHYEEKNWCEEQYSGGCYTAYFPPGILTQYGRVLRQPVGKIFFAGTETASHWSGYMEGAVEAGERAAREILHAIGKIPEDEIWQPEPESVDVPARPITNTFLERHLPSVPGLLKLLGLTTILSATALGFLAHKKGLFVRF
Nature of the assay: MAO-B inhibition, radiometric method of Fowler and Tipton (14C PEA). The assay is classed as biochemical. The arrangement: MAO-A and MAO-B activities were determined in rat brain homogenate; from tissue; host or cells: rat brain homogenate per the methods.

The mark [1] stands for this setting: 20 µM, pre-incubation times 0-360 min.

A word on the IC50: it is the concentration that inhibits the measured activity by half. With `C#CCN(Cc1ccc(O)c2ncccc12)C(C#N)CCC1CCN(Cc2ccccc2)CC1` (stereo not drawn) [Compound 6, 4-(1-benzylpiperidin-4-yl)-2-(((8-hydroxyquinolin-5-yl)methyl)(prop-2-yny)amino)butanenitrile], on MAO-A (setting [1]), the “pre-incubation period to complete MAO-A activity inhibition” value is not below 180 min. Also, the “time-dependence of MAO-A inhibition” value at MAO-A (setting [1]) was “irreversible behaviour; also recorded: time-dependent”. For the same molecule, the concentration for half-maximal inhibition (IC50) came out at 29.1 µM against MAO-A (pre-incubation time 0 min); 5.8 µM at MAO-A (pre-incubation time 30 min); 2.3 µM against MAO-A (pre-incubation time 60 min); 0.7 µM at MAO-A (pre-incubation time 240 min); 10.2 ± 0.9 µM at ratMAO-B. On ratMAO-B, the “MAO-B/ MAO-A” value came to 1.7. Moreover, at ratMAO-B, the “fold less active than M-30 for the inhibition of MAO-B” value turned out to be 179 fold.
